Consider eight compounds from patent US20260176283A1, “IONIZABLE LIPIDS WITH LINEAR HEAD GROUPS” (Beam Therapeutics Inc., priority 2023, published 2026).

Structures are written as SMILES. Values joined by “and” are separate entries in the source; they are usually repeats but may differ in a detail not shown here. Equal entries are not always repeated.

The nature of data set [1]: LNP preparation characterization (encapsulation efficiency, DLS size and polydispersity), barcoded screen LNPs. It counts as physicochemical. The note with it: LNP 47.5% ionizable lipid: 40% cholesterol: 2.5% PEG-2000 DMG: 10% DPSC, N/P 4.5-6; for AVG Z Dia (nm) / AVG PDI: DLS. The procedure:
Lipid nanoparticle components were dissolved in 100% ethanol at specified lipid component molar ratios. Nucleic acid (NA) cargo was dissolved in 10 mM citrate, 100 mM NaCl, pH 4.0, resulting in a concentration of NA cargo of approximately 0.22 mg/mL. In some embodiments, NA cargos included both a functional NA and a reporter barcode mixed at mass ratios of 1:10 to 10:1 functional NA to barcode. As described herein, a NA can be a siRNA, an anti-sense, an expressing DNA, or mRNA.
LNP preparations were prepared with 47.5% Ionizable Lipid (e.g., a compound provided herein): 40% cholesterol: 2.5% PEG-2000 DMG: 10% DPSC and an N/P ratio range of 4.5-6. LNP preparations were formed by microfluidic mixing of the lipid and NA solutions using Precision Nanosystems NanoAssemblr Spark or Benchtop series Instruments, according to the manufacturer's protocol.
A ratio of aqueous to organic solvent of approximately 2:1 or 3:1 was maintained during mixing using differential flow rates. After mixing, LNP preparations were collected, diluted in phosphate buffer saline (PBS) or Tris-buffered saline (TBS) (approximately 1:1 v/v). Further buffer exchange was conducted using dialysis in PBS or TBS at 4° C. for 4 to 24 hours against a 20 kDa filter. After this initial dialysis, each individual LNP preparation may be characterized via dynamic light scattering (DLS) to measure the size (e.g., diameter) and polydispersity. LNP preparations falling within specific diameter and polydispersity ranges were pooled, and further dialyzed against PBS or TBS at 4° C. for 1 to 4 hours against a 100 kDa dialysis cassette. After the second dialysis, LNP preparations were sterile filtered using 0.22 μm filter and stored at 4° C. for further use.

Data set [2] has as its system ALAS1 target site. The data set is described as follows: In vivo base editing with ABE mRNA and sgRNA targeting ALAS1. The note with it: for Liver Editing A->G (%): 4 days after dosing. More on the design: species or system Balb/c mice. How it is done:
(§1) Lipid nanoparticle components are dissolved in 100% ethanol at specified lipid component molar ratios. mRNA encoding an adenine base editor and a chemically-modified sgRNA is dissolved at a mass ratio of 1:1 in 10 mM citrate, 100 mM NaCl, pH 4.0, resulting in a concentration of NA cargo of approximately 0.22 mg/mL. LNP preparations are formulated with molar ratios of either 50% Ionizable Lipid: 38.5% Cholesterol: 1.5% PEG2000-DMG: 10% DSPC or 47.5% Ionizable Lipid: 40% Cholesterol: 2.5% PEG2000-DMG: 10% DSPC both at a total lipid to NA molar ratio of 6.
(§2) LNP preparations are formed by microfluidic mixing of the lipid and NA solutions using a Precision Nanosystems NanoAssemblr Ignite Instrument, according to the manufacturer's protocol. A 3:1 ratio of aqueous to organic solvent is maintained during mixing using differential flow rates. After mixing, LNP preparations are collected, diluted in PBS (approximately 2:1 v/v), and further buffer exchange is conducted using dialysis in PBS at 4° C. for 8 to 24 hours against a 20 kDa filter. After this initial dialysis, each individual LNP preparation is characterized via dynamic light scattering (DLS) to measure size and polydispersity. pKa of a subpopulation of LNP preparations is measured via TNS assay. After dialysis, LNP preparations are sterile filtered using 0.22 micron sterile filter and stored at 4° C. for further use. In some embodiments, LNP preparations may be concentrated using 100 kDa Amicon filters per manufacturer's protocol.
Male Balb/C mice aged approximately 8-12 weeks are used in the experiments described herein. Each mouse is temporarily restrained, and LNP preparations are administered IV via tail vein injection. Age-matched mice are also used to administer vehicle (1×PBS) via tail vein injection as a control. Four to six days post-dose, tissues including liver, spleen, heart and muscle are collected (only liver and muscle (quardracept) are reported). Genomic DNA is isolated and fragmented and adapter-ligated using the Nextera DNA Flex Library Prep Kit (Illumina) using the 96-well plate Nextera indexing primers (Illumina), according to the manufacturer's instructions. Library size and concentration is confirmed by Fragment Analyzer (Agilent) and sent to Novogene for whole genome sequencing using an Illumina HiSeq.
For base editing, mRNA encoding an adenine base editor (ABE) and a guide RNA (sgRNA) targeting ALAS1 at 1:1 (mass ratio) are coencapsulated in LNP preparations as described herein. LNP preparations are administrated into Balb/c mice through tail vein injections at concentrations ranging from 0.05 to 3.0 mg/kg total RNA. At 4 days after dosing, mice are euthanized and liver, spleen and bone barrow are harvested. Base editing is determined by performing targeted deep sequencing analysis at the ALAS1 target site using extracted genomic DNA.

A short description of data set [3]: LNP characterization of base editor LNP preparations (DLS diameter, PDI, encapsulation efficiency). Format: physicochemical. How it is done: as §1, §2
DLS—LNP preparation hydrodynamic diameter and polydispersity index (PDI) is measured using high throughput dynamic light scattering (DLS) (DynaPro plate reader II, Wyatt). LNP preparations are diluted 1×PBS to an appropriate concentration and analyzed.
Concentration of NA is determined by Qubit microRNA kit (for siRNA) or HS RNA kit (for mRNA) per manufacturer's instructions. Encapsulation efficiency is determined by measuring unlysed and lysed LNPs.

Setting [4] is: dose 3 MPK IV, formulation ratio 50:38.5:1.5:10, quadricep muscle.
The mark [5] stands for this setting: Table D LNPs, formulation ratio 50:38.5:1.5:10, ABE mRNA/ALAS1 sgRNA.
Where [6] appears, read: Table C LNPs, formulation ratio 47.5:40:2.5:10, ABE mRNA/ALAS1 sgRNA.
The mark [7] stands for this setting: dose 1.5 MPK IV, formulation ratio 50:38.5:1.5:10, liver.
[8] abbreviates: dose 1.5 MPK IV, formulation ratio 50:38.5:1.5:10, quadricep muscle.
Where [9] appears, read: dose 3 MPK IV, formulation ratio 50:38.5:1.5:10, liver.

Turning to `C=CCCCC(CCCC=C)OC(=O)CCCCCCC(=O)OCC(COC(=O)CCCCCCC(=O)OC(CCCC=C)CCCC=C)COC(=O)CCCN1CCCC1` [Compound (7), 1-[2-({[8-Oxo-8-(undeca-1,10-dien-6-yloxy)octanoyl]oxy}methyl)-3-{[4-(pyrrolidin-1-yl)butanoyl]oxy}propyl] 8-undeca-1,10-dien-6-yl octanedioate], in data set [1], the “AVG EE(%)” value is on record as 74.3% and the “AVG Z Dia (nm)” value is 85.54 nm. For the same compound, in data set [2] (setting [4]), the “Quadrecept Editing A->G (%)” value amounted to 0.87%. Further, in data set [3] (setting [5]), the “Diameter (nm)” value is reported as 121.2 nm, the “EE (%)” value came to 91.02% and the “PDI (%)” value came out at 11.8%.

`C=CCCCCCC(CCCCCC=C)OC(=O)CCCCCC(=O)OCC(COC(=O)CCCCCC(=O)OC(CCCCCC=C)CCCCCC=C)COC(=O)NCCN1CCCC1` [Compound (26), O1-[2-[[7-(1-hept-6-enyloct-7-enoxy)-7-oxo-heptanoyl]oxymethyl]-3-(2-pyrrolidin-1-ylethylcarbamoyloxy)propyl] O7-(1-hept-6-enyloct-7-enyl) heptanedioate]: in data set [1], the “AVG EE(%)” value came out at 93.4%, the “AVG PDI” value came out at 0.08 and the “AVG Z Dia (nm)” value came to 82.14 nm. The “Liver Editing A->G (%)” value in data set [2] (dose 0.05 MPK IV, formulation ratio 50:38.5:1.5:10, liver) amounted to 0.41%. Moreover, the “Quadrecept Editing A->G (%)” value in data set [2] (dose 3 MPK IV, formulation ratio 47.5:40:2.5:10, quadricep muscle) is recorded as 7.26%. In data set [3] (setting [6]), the “Diameter (nm)” value is 75.47 nm and 81.14 nm; the “EE (%)” value was 99.1% and 99%; the “PDI (%)” value was 1.2% and 9.4%. In data set [3] (setting [5]), the “Diameter (nm)” value was determined as 79.5 nm, the “EE (%)” value is 98.3% and the “PDI (%)” value was 22.3%.

As to `CCC/C=C\CCC(CC/C=C\CCC)OC(=O)CCCCCC(=O)OCC(COC(=O)CCCCCC(=O)OC(CC/C=C\CCC)CC/C=C\CCC)COC(=O)CCCN1CCCC1` [Compound (23), 1-{2-[({7-Oxo-7-[(4Z,11Z)-pentadeca-4,11-dien-8-yloxy]heptanoyl}oxy)methyl]-3-{[4-(pyrrolidin-1-yl)butanoyl]oxy}propyl} 7-(4Z,11Z)-pentadeca-4,11-dien-8-ylheptanedioate], in data set [1], the “AVG EE(%)” value is recorded as 85.8%, the “AVG PDI” value came out at 0.12 and the “AVG Z Dia (nm)” value came out at 78.47 nm. Besides, the “Liver Editing A->G (%)” value in data set [2] (setting [7]) was found to be 80.09%. Further, the “Quadrecept Editing A->G (%)” value in data set [2] (setting [8]) was 4.81%. Moreover, in data set [3] (setting [5]), the “Diameter (nm)” value came to 72.6 nm, the “EE (%)” value came to 98.18% and the “PDI (%)” value is 11.4%.

As for `C=CCCCC(CCCC=C)COC(=O)CCCCCC(=O)OCC(COC(=O)CCCCCC(=O)OCC(CCCC=C)CCCC=C)COC(=O)CCCN1CCCC1` [Compound (18), 1-(2-{[(7-Oxo-7-{[2-(pent-4-en-1-yl)hept-6-en-1-yl]oxy}heptanoyl)oxy]methyl}-3-{[4-(pyrrolidin-1-yl)butanoyl]oxy}propyl) 7-[2-(pent-4-en-1-yl)hept-6-en-1-yl] heptanedioate], in data set [1], the “AVG EE(%)” value worked out at 98.2%, the “AVG PDI” value is recorded as 0.07 and the “AVG Z Dia (nm)” value was determined as 138.63 nm. The “Liver Editing A->G (%)” value in data set [2] (dose 0.1 MPK IV, formulation ratio 47.5:40:2.5:10, liver) is 0.99%. In addition, the “Quadrecept Editing A->G (%)” value in data set [2] (dose 0.1 MPK IV, formulation ratio 47.5:40:2.5:10, quadricep muscle) is on record as 0.29%. In addition, the “Quadrecept Editing A->G (%)” value in data set [2] (setting [4]) turned out to be 2.5%. Further, in data set [3] (setting [6]), the “Diameter (nm)” value amounted to 106 nm, the “EE (%)” value stood at 93.9% and the “PDI (%)” value stood at 16.9%. In data set [3] (setting [5]), the “Diameter (nm)” value came out at 149.3 nm, the “EE (%)” value is 88.58% and the “PDI (%)” value turned out to be 13.1%.

Consider `C=CCCCCC(CCCCC=C)OC(=O)CCCCCC(=O)OCC(COC(=O)CCCCCC(=O)OC(CCCCC=C)CCCCC=C)COC(=O)CCCN1CCCC1` [Compound (2)], for which, in data set [1], the “AVG EE(%)” value came out at 83.5%, the “AVG PDI” value came out at 0.06 and the “AVG Z Dia (nm)” value was 108.73 nm. For the same compound, the “Liver Editing A->G (%)” value in data set [2] (setting [7]) is 79.48%. Also, the “Quadrecept Editing A->G (%)” value in data set [2] (setting [8]) is listed as 3.19%. Besides, in data set [3] (setting [5]), the “Diameter (nm)” value was 98.8 nm, the “EE (%)” value was found to be 98.59% and the “PDI (%)” value is 9.5%.

Consider `C=CCCCCCC(CCCCCC=C)OC(=O)CCCCCCC(=O)OCC(COC(=O)CCCCCCC(=O)OC(CCCCCC=C)CCCCCC=C)COC(=O)CCCN1CCCC1` [Compound (10), 1-[2-({[8-Oxo-8-(pentadeca-1,14-dien-8-yloxy)octanoyl]oxy}methyl)-3-{[4-(pyrrolidin-1-yl)butanoyl]oxy}propyl] 8-pentadeca-1,14-dien-8-yl octanedioate], for which, in data set [2] (setting [9]), the “Liver Editing A->G (%)” value is 75.62%. In addition, the “Quadrecept Editing A->G (%)” value in data set [2] (setting [4]) came out at 3.6%. For the same compound, in data set [3] (setting [5]), the “Diameter (nm)” value was determined as 71.6 nm, the “EE (%)” value is 98.66% and the “PDI (%)” value is recorded as 11%.

For the compound `CC/C=C\CCCC(CCC/C=C\CC)OC(=O)CCCCCC(=O)OCC(COC(=O)CCCCCC(=O)OC(CCC/C=C\CC)CCC/C=C\CC)COC(=O)NCCN1CCCC1` [Compound (28), 1-{2-[({7-oxo-7-[(3Z,12Z)-pentadeca-3,12-dien-8-yloxy]heptanoyl}oxy)methyl]-3-({[2-(pyrrolidin-1-yl)ethyl]carbamoyl}oxy)propyl}7-(3Z,12Z)-pentadeca-3,12-dien-8-ylheptanedioate], in data set [2] (dose 0.05 MPK IV, formulation ratio 47.5:40:2.5:10, liver), the “Liver Editing A->G (%)” value turned out to be 0.65%. In addition, in data set [3] (setting [6]), the “Diameter (nm)” value turned out to be 71.15 nm, the “EE (%)” value is reported as 98.71% and the “PDI (%)” value amounted to 11.8%.

Take `C=CCCCCCCC(CCCCCCC=C)OC(=O)CCCCCC(=O)OCC(COC(=O)CCCCCC(=O)OC(CCCCCCC=C)CCCCCCC=C)COC(=O)CCCN1CCCC1` [Compound (4), 1-Heptadeca-1,16-dien-9-yl-7-[2-({[7-(heptadeca-1,16-dien-9-yloxy)-7-oxoheptanoyl]oxy}methyl)-3-{[4-(pyrrolidin-1-yl)butanoyl]oxy}propyl] heptanedioate]: the “Liver Editing A->G (%)” value in data set [2] (setting [9]) was found to be 64.7%. The “Quadrecept Editing A->G (%)” value in data set [2] (setting [4]) is 4.16%. Further, in data set [3] (setting [5]), the “Diameter (nm)” value is reported as 72.1 nm, the “EE (%)” value was 99.03% and the “PDI (%)” value amounted to 11%.
